Measurements published in ChEMBL document CHEMBL1201862, “PubChem BioAssay data set” (2004).
Calls of active or inactive are those of the source.

Experiments:
[1] = Luminescence Cell-Based Dose Confirmation HTS to Identify Inhibitors of Platelet Dense Granule Release. [Related pubchem assays: 1663 (Primary HTS), 1678 (Summary of Project)]; type: functional
[2] = biological target: Luciferin 4-monooxygenase (Photinus pyralis, UniProt P08659); assay: firefly luciferase enzyme inhibitors, dose response, biochemical, luminescence (AID 1891)
Sequence of Luciferin 4-monooxygenase (P08659 whole entry): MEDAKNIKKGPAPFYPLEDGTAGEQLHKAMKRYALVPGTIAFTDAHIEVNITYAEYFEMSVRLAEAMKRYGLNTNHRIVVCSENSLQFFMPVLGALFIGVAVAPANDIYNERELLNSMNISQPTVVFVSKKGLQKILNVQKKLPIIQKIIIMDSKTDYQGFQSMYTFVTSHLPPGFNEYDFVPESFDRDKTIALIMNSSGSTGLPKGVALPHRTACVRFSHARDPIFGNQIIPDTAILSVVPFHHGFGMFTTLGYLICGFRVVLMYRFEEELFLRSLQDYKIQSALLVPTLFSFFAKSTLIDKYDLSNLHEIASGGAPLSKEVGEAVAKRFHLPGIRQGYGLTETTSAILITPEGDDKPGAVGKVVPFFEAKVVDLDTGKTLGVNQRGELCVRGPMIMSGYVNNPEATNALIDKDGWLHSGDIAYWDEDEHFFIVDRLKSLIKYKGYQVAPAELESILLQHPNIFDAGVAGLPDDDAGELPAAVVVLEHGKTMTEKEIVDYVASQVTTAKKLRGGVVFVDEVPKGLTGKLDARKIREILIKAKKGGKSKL

Genome polyprotein = Genome polyprotein (dengue virus type 2, UniProt P29990); assay: Dengue-2 NS5 methyltransferase inhibitors, primary screen, biochemical, confirmation dose response (AID 588689); type: functional
Sequence of Genome polyprotein (P29990 2492-3391 limits assumed): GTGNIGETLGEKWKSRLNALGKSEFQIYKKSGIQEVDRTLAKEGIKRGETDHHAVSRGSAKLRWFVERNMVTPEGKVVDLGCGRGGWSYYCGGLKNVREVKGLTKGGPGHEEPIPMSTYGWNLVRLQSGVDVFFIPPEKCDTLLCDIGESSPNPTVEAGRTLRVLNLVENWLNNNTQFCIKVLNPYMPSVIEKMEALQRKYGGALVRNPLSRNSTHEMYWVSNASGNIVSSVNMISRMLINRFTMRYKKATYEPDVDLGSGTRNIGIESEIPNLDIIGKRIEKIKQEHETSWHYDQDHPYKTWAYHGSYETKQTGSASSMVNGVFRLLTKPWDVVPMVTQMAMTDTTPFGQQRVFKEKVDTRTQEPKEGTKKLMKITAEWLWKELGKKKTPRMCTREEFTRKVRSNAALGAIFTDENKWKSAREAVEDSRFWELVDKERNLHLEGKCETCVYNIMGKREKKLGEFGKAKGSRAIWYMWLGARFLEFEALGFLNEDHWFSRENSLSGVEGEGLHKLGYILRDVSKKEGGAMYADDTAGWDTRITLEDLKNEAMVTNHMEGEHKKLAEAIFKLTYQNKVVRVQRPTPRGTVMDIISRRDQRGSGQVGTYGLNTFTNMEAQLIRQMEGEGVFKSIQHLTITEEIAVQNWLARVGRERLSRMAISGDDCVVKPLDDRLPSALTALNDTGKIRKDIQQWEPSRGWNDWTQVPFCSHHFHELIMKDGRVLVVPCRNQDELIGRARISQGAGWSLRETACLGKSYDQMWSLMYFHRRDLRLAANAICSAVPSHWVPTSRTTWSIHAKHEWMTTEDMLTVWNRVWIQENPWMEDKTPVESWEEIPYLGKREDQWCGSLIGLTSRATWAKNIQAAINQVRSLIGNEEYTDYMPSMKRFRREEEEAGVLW

[3] = biological target: Heat shock protein HSP 90-alpha (Homo sapiens, UniProt P07900); type: functional, organism-based
[4] = biological target: T1, Calpain-2 catalytic subunit (Sus scrofa, UniProt P43367); assay: pig calpain II inhibitor potency, dose response, biochemical, fluorogenic peptide substrate (AID 1420); type: functional
T1 sequence (P43367 whole entry): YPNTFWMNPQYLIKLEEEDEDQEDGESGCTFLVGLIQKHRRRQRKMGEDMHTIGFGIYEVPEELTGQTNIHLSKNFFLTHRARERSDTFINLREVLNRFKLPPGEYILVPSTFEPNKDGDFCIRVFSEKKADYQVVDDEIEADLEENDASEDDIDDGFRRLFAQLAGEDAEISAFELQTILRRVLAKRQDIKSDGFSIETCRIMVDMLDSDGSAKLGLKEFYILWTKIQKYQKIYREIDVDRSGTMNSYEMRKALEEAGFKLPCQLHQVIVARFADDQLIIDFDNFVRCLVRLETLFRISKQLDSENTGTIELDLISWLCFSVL

[5] = biological target: T2, High affinity choline transporter 1 (Homo sapiens, UniProt Q9GZV3); assay: CHT inhibitors, dose response, cell-based, 5-point CRC, membrane potential dye (AID 504840); type: functional
T2 sequence (Q9GZV3 whole entry): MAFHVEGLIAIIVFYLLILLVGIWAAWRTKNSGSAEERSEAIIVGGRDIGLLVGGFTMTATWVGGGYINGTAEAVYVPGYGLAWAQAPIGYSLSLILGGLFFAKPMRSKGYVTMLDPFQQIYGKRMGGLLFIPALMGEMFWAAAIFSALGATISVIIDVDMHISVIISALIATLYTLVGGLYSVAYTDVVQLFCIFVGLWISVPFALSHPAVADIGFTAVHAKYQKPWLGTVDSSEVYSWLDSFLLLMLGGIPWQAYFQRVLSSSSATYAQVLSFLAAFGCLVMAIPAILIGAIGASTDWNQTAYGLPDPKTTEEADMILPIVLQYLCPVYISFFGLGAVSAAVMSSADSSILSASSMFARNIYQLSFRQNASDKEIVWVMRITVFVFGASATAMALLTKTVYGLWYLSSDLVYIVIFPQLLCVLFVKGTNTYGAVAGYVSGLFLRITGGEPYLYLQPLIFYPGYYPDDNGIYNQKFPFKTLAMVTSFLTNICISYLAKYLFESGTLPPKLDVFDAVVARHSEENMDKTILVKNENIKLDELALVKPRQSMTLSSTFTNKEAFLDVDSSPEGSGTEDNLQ

[6] = growth suppression of PTEN-null colon cells, dose response, cell-based, HCT116 PTEN knockout (AID 1047); type: functional;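 also: HCT116 colon tumor cells with PTEN knocked out; cells exposed to compound for 60 hours before readout; potency for loss of cell viability measured by luminescence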
[7] = growth suppression of beta-catenin-knockout colon cells, dose response, cell-based, HCT116, human colon tumor (AID 1045); type: functional;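 also: HCT116 colon tumor cells with beta catenin knocked out; cells exposed to compound for 60 hours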
[8] = biological target: Glyceraldehyde-3-phosphate dehydrogenase (Homo sapiens, UniProt P04406)
Sequence of Glyceraldehyde-3-phosphate dehydrogenase (P04406 whole entry): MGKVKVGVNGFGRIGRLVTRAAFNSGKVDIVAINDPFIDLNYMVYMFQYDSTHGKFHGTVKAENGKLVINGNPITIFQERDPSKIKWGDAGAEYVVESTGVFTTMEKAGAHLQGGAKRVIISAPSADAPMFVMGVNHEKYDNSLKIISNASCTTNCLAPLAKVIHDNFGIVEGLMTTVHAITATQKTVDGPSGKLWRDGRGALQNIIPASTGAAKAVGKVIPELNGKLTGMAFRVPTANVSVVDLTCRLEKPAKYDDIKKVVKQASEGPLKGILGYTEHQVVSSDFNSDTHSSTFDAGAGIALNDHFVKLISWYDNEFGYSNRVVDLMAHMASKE

Protein skinhead-1 = biological target: T3, Protein skinhead-1 (Caenorhabditis elegans, UniProt P34707); type: functional
T3 sequence (P34707 whole entry): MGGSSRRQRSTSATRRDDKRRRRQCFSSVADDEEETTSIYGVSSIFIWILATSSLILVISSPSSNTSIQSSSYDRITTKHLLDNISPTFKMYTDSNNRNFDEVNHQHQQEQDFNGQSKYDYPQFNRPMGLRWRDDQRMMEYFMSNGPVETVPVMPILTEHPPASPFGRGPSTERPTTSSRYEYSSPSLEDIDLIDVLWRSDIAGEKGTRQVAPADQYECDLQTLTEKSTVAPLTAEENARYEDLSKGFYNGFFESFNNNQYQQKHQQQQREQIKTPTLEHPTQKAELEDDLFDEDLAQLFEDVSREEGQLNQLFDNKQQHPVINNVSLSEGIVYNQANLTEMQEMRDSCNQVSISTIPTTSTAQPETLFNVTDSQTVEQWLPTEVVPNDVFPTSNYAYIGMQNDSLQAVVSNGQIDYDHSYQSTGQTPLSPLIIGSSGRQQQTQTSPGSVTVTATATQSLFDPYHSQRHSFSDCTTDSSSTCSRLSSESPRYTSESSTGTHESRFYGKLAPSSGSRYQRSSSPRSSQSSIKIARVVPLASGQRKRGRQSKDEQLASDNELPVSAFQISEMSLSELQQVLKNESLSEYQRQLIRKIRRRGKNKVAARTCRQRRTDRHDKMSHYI

Cytochrome P450 3A4 = Cytochrome P450 3A4 (Homo sapiens, UniProt P08684);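 also: CYP3A4 tested as one member of a cytochrome P450 panel screen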
Sequence of Cytochrome P450 3A4 (P08684 whole entry): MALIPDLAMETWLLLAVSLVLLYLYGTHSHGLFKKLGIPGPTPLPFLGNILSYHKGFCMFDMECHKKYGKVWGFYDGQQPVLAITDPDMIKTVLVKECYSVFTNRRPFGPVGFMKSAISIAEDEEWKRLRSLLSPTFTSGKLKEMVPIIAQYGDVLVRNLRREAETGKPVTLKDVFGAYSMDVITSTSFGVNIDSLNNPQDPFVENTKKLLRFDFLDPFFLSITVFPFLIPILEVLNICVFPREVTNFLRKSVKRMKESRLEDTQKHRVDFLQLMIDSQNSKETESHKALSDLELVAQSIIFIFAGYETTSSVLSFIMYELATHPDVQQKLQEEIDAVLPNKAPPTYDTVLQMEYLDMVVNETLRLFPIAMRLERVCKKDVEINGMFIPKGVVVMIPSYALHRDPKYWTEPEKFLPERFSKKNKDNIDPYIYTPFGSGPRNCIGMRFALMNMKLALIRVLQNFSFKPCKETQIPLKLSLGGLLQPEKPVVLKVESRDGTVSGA

Cytochrome P450 2C19 = Cytochrome P450 2C19 (Homo sapiens, UniProt P33261); assay: Cytochrome panel assay with activity outcomes. Panel member name: p450-cyp2c19 Compounds with AC50 equal or less than 10 uM are considered active; type: functional
Sequence of Cytochrome P450 2C19 (P33261 whole entry): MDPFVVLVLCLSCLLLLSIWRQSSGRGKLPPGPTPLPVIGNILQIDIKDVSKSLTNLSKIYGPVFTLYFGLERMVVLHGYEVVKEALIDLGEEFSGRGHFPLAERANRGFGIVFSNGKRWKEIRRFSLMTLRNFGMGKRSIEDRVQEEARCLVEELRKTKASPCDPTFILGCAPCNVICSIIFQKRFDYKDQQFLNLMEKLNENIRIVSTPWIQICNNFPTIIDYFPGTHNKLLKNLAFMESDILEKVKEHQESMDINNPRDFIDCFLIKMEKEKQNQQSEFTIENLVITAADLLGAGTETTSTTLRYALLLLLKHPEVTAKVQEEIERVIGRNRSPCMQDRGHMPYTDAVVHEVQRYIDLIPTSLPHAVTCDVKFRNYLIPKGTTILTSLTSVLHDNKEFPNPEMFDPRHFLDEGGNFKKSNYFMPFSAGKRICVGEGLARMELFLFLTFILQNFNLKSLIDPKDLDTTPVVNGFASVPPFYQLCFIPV

Streptokinase A = biological target: T4, Streptokinase A (Streptococcus pyogenes serotype M1, UniProt P10520); assay: S. pyogenes streptokinase expression inhibitors, potency, dose response, plasminogen activation absorbance, OD405 (AID 1914); type: functional, Streptococcus pyogenes M1 GAS;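 also: secreted streptokinase activity via plasminogen activation per viability signal from cell pellet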
T4 sequence (P10520 whole entry): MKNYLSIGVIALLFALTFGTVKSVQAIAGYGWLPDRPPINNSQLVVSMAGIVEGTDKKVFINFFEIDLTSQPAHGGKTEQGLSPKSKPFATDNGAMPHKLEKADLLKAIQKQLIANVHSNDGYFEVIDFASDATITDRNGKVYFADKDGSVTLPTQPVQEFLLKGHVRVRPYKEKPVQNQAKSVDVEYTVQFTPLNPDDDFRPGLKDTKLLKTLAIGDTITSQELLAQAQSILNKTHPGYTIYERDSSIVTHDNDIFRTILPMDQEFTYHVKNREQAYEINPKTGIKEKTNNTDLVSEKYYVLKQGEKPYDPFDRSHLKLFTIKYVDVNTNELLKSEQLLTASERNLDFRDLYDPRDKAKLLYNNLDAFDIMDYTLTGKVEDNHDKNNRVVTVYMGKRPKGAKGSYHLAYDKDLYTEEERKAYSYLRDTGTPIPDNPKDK

[9] = inhibitors of intracellular T. cruzi replication, confirmation, NIH3T3 host cells, beta-gal luminescence (AID 2044); type: functional, cell-based;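 also: intracellular parasites grown in NIH/3T3 mouse fibroblasts as host cells; luminescent beta-galactosidase reporter signal from transgenic T. cruzi replicating inside host cells; inhibitors lower the luminescence signal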
Streptococcus = assay: Group A Streptococcus viability loss, dose response, counter-screen for streptokinase expression inhibitor project, luminescence, BacTiterGlo (AID 1915); type: functional, organism-based;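 also: potency for reduction of bacterial viability or growth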
[10] = cytotoxicity toward NIH3T3 fibroblasts, dose response, counter-screen, cell-based, ATP luminescence, mouse fibroblasts (AID 2010); type: functional;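 also: cells exposed to compound for about 90 hours before reading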
[11] = tested on: Streptococcus sp. 'group A'; assay: growth inhibition of control SK(-) GAS strain, dose response, counter-screen for streptokinase expression inhibitor project, luminescence, kanamycin, BacTiterGlo, confirmation (AID 1900); type: functional, organism-based
Nonstructural protein 1 = Nonstructural protein 1 (Influenza A virus, UniProt Q194T2); type: functional, Influenza A virus (A/California/07/2009(H1N1))
Sequence of Nonstructural protein 1 (Q194T2 whole entry): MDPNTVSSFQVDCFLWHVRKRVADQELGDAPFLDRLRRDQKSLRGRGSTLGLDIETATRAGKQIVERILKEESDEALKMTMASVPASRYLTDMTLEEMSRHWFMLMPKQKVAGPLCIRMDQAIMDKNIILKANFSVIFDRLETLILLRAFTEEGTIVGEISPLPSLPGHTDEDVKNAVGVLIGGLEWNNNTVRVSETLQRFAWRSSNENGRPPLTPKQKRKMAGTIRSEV

[12] = biological target: DNA dC->dU-editing enzyme APOBEC-3G (Homo sapiens, UniProt Q9HC16); assay: Dose Response confirmation of small molecule APOBEC3G DNA Deaminase Inhibitors via a fluorescence-based single-stranded DNA deaminase assay. [Related pubchem assays (depositor defined):AID493012, AID493028]; type: functional
Sequence of DNA dC->dU-editing enzyme APOBEC-3G (Q9HC16 whole entry): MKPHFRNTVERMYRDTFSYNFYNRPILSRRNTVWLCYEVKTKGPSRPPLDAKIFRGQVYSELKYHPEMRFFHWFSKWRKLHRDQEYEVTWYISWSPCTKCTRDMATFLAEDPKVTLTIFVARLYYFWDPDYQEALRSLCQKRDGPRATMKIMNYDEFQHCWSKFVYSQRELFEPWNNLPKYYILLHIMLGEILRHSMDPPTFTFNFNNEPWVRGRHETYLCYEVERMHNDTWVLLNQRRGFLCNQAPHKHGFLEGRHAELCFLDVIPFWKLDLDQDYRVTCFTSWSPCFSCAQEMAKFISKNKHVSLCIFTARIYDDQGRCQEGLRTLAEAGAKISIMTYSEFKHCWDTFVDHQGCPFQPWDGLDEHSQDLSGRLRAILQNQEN

[13] = THP-1 cell cytotoxicity, dose response, cytotoxicity control for non-replicating M. tuberculosis project (AID 489025); type: functional
[14] = biological target: T5, DNA repair protein RAD52 homolog (Homo sapiens, UniProt P43351); type: functional, biochemical
T5 sequence (P43351 whole entry): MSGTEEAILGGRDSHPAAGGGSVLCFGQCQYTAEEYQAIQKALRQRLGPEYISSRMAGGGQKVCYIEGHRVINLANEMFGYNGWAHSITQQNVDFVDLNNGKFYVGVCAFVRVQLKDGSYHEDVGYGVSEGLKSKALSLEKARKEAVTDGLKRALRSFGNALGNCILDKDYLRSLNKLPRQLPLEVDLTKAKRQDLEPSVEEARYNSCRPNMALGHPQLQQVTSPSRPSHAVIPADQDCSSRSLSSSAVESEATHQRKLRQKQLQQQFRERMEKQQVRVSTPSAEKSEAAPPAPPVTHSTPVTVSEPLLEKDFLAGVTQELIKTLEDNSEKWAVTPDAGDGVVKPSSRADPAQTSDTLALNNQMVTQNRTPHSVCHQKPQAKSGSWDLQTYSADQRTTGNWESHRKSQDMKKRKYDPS

cells = type: functional
SN12K1 = assay: cells; type: functional; settings: Homo sapiens
P388 = assay: cells; type: functional; settings: Mus musculus
P388/ADR = assay: cells; type: functional; settings: Mus musculus

CCn1ccc(C(=O)Nc2c(C)nn(Cc3c(F)c(F)c(F)c(F)c3F)c2C)n1
EC50 [1]: > 112 µM (not active) | EC50 [2]: > 112 µM (not active)

O=C(O)c1cccc(NS(=O)(=O)c2ccc(-c3ccc(S(=O)(=O)Nc4cccc(C(=O)O)c4)cc3)cc2)c1
IC50 (Genome polyprotein): 49.5 µM (active)

O=C(c1ccc(-c2ccccc2)cc1)C1CCCN(C(=O)c2cncs2)C1 (configuration not stated)
AC50 [3]: 4.29 µM (active)

CCC(=O)N1CCc2cc(S(=O)(=O)N3CCc4ccccc4C3)ccc21
IC50 [4]: < 0.4 µM (not active)

COc1ccc(-n2c(C)cc(C(=O)CSc3nnc(-c4ccoc4C)n3C)c2C)cc1
IC50 [5]: 13.8 µM (active)

COc1ccc2nc(Nc3nc4ccc(NC(C)=O)cc4s3)sc2c1
EC50 [6]: 16.9 µM (active) | EC50 [7]: 14 µM (active)

CN1C(=O)NC(=O)/C(=C/c2ccc(C(=O)O)cc2)C1=O
IC50 (Genome polyprotein): 85.1 µM (active)

O=C(O)C1Nc2ccccc2S(=O)(=O)N1 (configuration not stated)
IC50 [8]: > 100 µM (not active)

COc1ccc(-n2cc(-c3ccccc3)c3c(N4CCN(CCO)CC4)ncnc32)cc1
EC50 [6]: 32.8 µM (active) | EC50 [7]: 30.3 µM (active)

O=C(/C=C/Nc1ccc(Oc2ccccc2)cc1)c1ccco1
IC50 (Protein skinhead-1): > 100 µM (inactive) | EC50 [1]: 1.64 µM (active) | EC50 [2]: 0.617 µM (active)

COc1ccc(N(C(=O)Cn2nnc(-c3ccccc3F)n2)C(C(=O)NCC2CCCO2)c2ccc(Cl)cc2)cc1 (configuration not stated)
IC50 [4]: > 50 µM (not active)

CC(C)C[C@H](NC(=O)[C@@H]1O[C@H]1C(=O)O)C(=O)NCCCCN=C(N)N
AC50 (Cytochrome P450 3A4): 0.158 µM (inconclusive) | IC50 [4]: > 50 µM (not active) | AC50 (Cytochrome P450 2C19): inconclusive

O=C(Nc1cccc(-c2nnc(-c3ccco3)o2)c1)c1ccccc1
IC50 [4]: 2.37 µM (not active)

CCOc1cc2c(cc1C(C)(C)C)NC(=O)CS2
EC50 [1]: > 112 µM (not active) | EC50 [2]: > 112 µM (not active)

Cn1cccc1C(=O)Nc1nc(-c2ccccn2)cs1
EC50 (Streptokinase A): > 150 µM (not active) | EC50 [9]: 2.28 µM (active) | EC50 (Streptococcus): 58.3 µM (active) | EC50 [10]: 4.47 µM (active) | EC50 [11]: 18.4 µM (active) | IC50 (Nonstructural protein 1): 11 µM (active)

Cc1noc(C)c1CSc1nnc2scc(-c3ccc(Cl)cc3)n12
EC50 [1]: > 112 µM (not active) | EC50 [2]: > 112 µM (not active)

Fc1ccccc1Nc1nc2ccccc2o1
EC50 [1]: 4.57 µM (active) | EC50 [2]: 0.83 µM (active)

COc1ccc2oc(/C=C/N(C)C)c(C(=O)c3ccc(Cl)cc3)c2c1
AC50 [3]: 3.8 µM (active)

CCOC(=O)C1CCN(Cc2c(O)oc3ccccc3c2=O)CC1
IC50 [5]: 6.91 µM (active)

Cn1c(-c2cc(Br)ccc2O)n[nH]c1=S
EC50 (Streptokinase A): > 150 µM (not active) | IC50 [12]: 8.33 µM (active)

CCCCn1c(SCn2nnc3ccccc3c2=O)nc2cc(S(N)(=O)=O)ccc21
IC50 [5]: 15.8 µM (active)

O=C(CN1CCCCC1)N1CCCc2c1c(=O)oc1ccc(OCc3ccccc3)cc21
EC50 [6]: 39.9 µM (active) | EC50 [7]: 48.4 µM (active)

CN(C)CC/C=C1/c2ccc(F)cc2Sc2ccc(Cl)cc21
CC50 [13]: 18.9 µM (active) | AC50 [14]: 12.8 µM (active) | IC50 (cells): 18.6 µM (active)

c1ccc(-c2cnnc(-c3ccccn3)n2)cc1
IC50 (Nonstructural protein 1): 12.9 µM (active)

O=S(=O)(c1ccc(Br)cc1)c1nc(-c2ccccc2)oc1NCCN1CCOCC1
IC50 (Nonstructural protein 1): > 100 µM (active)

COc1ccc2c(c1)OCCc1cn[nH]c1-2
GI50 (SN12K1): 38.2 µM (inactive) | GI50 (P388): 32.5 µM (inactive) | GI50 (P388/ADR): 34 µM (inactive)

COC(=O)/C=c1/sc2nc3ccccc3n2c1=O
IC50 [12]: 30.8 µM (active)

C/C(=C/C(=O)Nc1ccccc1)Nc1onc(C)c1C
GI50 (SN12K1): > 100 µM (inactive) | GI50 (P388): > 100 µM (inactive)

COc1ccc(/C(Cl)=C(\C=O)c2ccc(OC)c(OC)c2)cc1OC
GI50 (SN12K1): 80.9 µM (inactive) | GI50 (P388): 35.3 µM (inactive) | GI50 (P388/ADR): 10.5 µM (inactive)

CSc1nc2c(ncn2C2OC(CO)C(O)C(O)C2O)c(=O)[nH]1 (configuration not stated)
GI50 (SN12K1): > 100 µM (inactive) | GI50 (P388): > 100 µM (inactive) | GI50 (P388/ADR): > 10 µM (inactive)

COc1cccc(/C=N/Nc2ccc(S(=O)(=O)O)cc2)c1O
EC50 [1]: 3.13 µM (active) | EC50 [2]: 3.91 µM (active)

Cc1cc(C(=O)N/N=C/c2ccc(OCc3ccccc3)cc2)c(C)o1
IC50 [4]: < 0.4 µM (not active)

C=CCOc1ccccc1/C=c1\sc2nc(=O)c(C)nn2c1=O
IC50 (Genome polyprotein): 12.1 µM (active)

COc1ccc(CO/N=C/c2c(C)nc(O)nc2O)cc1
EC50 [1]: 13.8 µM (active) | EC50 [2]: > 112 µM (not active)
